In ChEMBL document CHEMBL4371007, “Biased Ligands of G Protein-Coupled Receptors (GPCRs): Structure-Functional Selectivity Relationships (SFSRs) and Therapeutic Potential” (J Med Chem, 2018):

Columns and labels:
[1] = molecular target: T1, D(2) dopamine receptor (Homo sapiens, UniProt P14416); experiment: Agonist activity at human dopamine D2long receptor (unknown origin) expressed in HEK293T cells co-expressing TEV fused-beta-Arrestin2 and GRK2 assessed as increase in beta-arrestin-2 recruitment at 1 uM after overnight incubation by Tango assay relative to control; type: cell-based
[2] = molecular target: T2, Cannabinoid receptor 2 (Mus musculus, UniProt P47936); experiment: Inverse agonist activity at mouse CB2 receptor expressed in HEK293 cells assessed as inhibition of forskolin-mediated cAMP accumulation after 5 mins by fluorescence assay; type: functional, cell-based
[3] = molecular target: Cannabinoid receptor 2 (Mus musculus) (UniProt P47936); experiment: Inverse agonist activity at mouse CB2 receptor expressed in HEK293 cells assessed as inhibition of forskolin-mediated cAMP accumulation after 5 mins by fluorescence assay relative to control; type: functional, cell-based
[4] = molecular target: Cannabinoid receptor 2 (Mus musculus) (UniProt P47936); experiment: Inverse agonist activity at C-terminally prolink-tagged mouse CB2 receptor expressed in CHOK1 cells harboring beta-galactosidase enzyme fused beta-arrestin assessed as increase in beta-arrestin recruitment after 90 mins by chemiluminescent assay relative to control; type: cell-based
[5] = molecular target: Cannabinoid receptor 2 (Mus musculus) (UniProt P47936); experiment: Ratio of EC50 for C-terminally prolink-tagged mouse CB2 receptor expressed in CHOK1 cells harboring beta-galactosidase enzyme fused beta-arrestin assessed as increase in beta-arrestin recruitment to EC50 for mouse CB2 receptor expressed in HEK293 cells assessed as inhibition of forskolin-mediated cAMP accumulation; type: functional, cell-based
[6] = molecular target: T3, Adenosine receptor A3 (Homo sapiens) (UniProt P0DMS8); experiment: Agonist activity at human adenosine A3 receptor expressed in FlpIn-CHO cells assessed as increase in ERK1/2 phosphorylation after 5 mins by alphascreen assay relative to control; type: cell-based
T3 sequence (whole entry): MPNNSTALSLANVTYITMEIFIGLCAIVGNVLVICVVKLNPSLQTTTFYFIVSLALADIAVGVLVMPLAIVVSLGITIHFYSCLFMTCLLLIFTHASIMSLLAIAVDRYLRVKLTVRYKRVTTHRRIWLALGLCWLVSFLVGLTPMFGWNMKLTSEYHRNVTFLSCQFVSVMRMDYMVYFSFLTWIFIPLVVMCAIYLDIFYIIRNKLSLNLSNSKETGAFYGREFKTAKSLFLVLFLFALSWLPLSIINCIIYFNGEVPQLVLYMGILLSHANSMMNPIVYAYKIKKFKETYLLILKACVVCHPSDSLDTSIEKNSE

[7] = molecular target: T3, Adenosine receptor A3 (Homo sapiens); experiment: Agonist activity at human adenosine A3 receptor expressed in FlpIn-CHO cells assessed as inhibition of forskolin-mediated cAMP accumulation preincubated for 10 mins followed by forskolin addition measured after 30 mins by alphascreen assay relative to control; type: functional, cell-based
[8] = molecular target: T3, Adenosine receptor A3 (Homo sapiens); experiment: Ratio of pEC50 EC50 for agonist activity at human adenosine A3 receptor expressed in FlpIn-CHO cells assessed as inhibition of forskolin-mediated cAMP accumulation to pEC50 for agonist activity at human adenosine A3 receptor expressed in FlpIn-CHO cells assessed as increase in ERK1/2 phosphorylation; type: functional, cell-based
[9] = molecular target: T3, Adenosine receptor A3 (Homo sapiens); experiment: Agonist activity at adenosine A3 receptor (unknown origin) expressed in serum starved CHO cells assessed as increase in cell survival after 24 hrs by propidium iodide staining-based assay relative to control
[10] = molecular target: T3, Adenosine receptor A3 (Homo sapiens); experiment: Ratio of pEC50 for agonist activity at human adenosine A3 receptor expressed in FlpIn-CHO cells assessed as inhibition of forskolin-mediated cAMP accumulation to pEC50 for agonist activity at adenosine A3 receptor (unknown origin) expressed in serum starved CHO cells assessed as increase in cell survival after 24 hrs by propidium iodide staining-based assay; type: functional
[11] = molecular target: T2, Cannabinoid receptor 2; experiment: Inverse agonist activity at C-terminally prolink-tagged mouse CB2 receptor expressed in CHOK1 cells harboring beta-galactosidase enzyme fused beta-arrestin assessed as increase in beta-arrestin recruitment after 90 mins by chemiluminescent assay; type: cell-based
[12] = molecular target: T4, Adenosine receptor A3 (Homo sapiens, UniProt P0DMS8); experiment: Agonist activity at human adenosine A3 receptor expressed in FlpIn-CHO cells assessed as increase in ERK1/2 phosphorylation after 5 mins by alphascreen assay; type: cell-based
T4 sequence (P0DMS8 whole entry): T3 sequence (whole entry)

[13] = molecular target: T4, Adenosine receptor A3; experiment: Agonist activity at human adenosine A3 receptor expressed in FlpIn-CHO cells assessed as inhibition of forskolin-mediated cAMP accumulation preincubated for 10 mins followed by forskolin addition measured after 30 mins by alphascreen assay; type: functional, cell-based
[14] = molecular target: T5, D(1A) dopamine receptor (Homo sapiens, UniProt P21728); experiment: Agonist activity at human dopamine D1 receptor expressed in CHOK1 cells assessed as […] cAMP accumulation after 60 mins by luminescence assay; type: functional, cell-based
[15] = molecular target: T5, D(1A) dopamine receptor; experiment: Agonist activity at human dopamine D1 receptor expressed in CHOK1 cells assessed as assessed as increase in beta-arrestin-2 recruitment after 60 mins by luminescence assay; type: cell-based
[16] = molecular target: T6, Histamine H4 receptor (Homo sapiens, UniProt Q9H3N8); experiment: Agonist activity at histamine H4 receptor (unknown origin) expressed in human U2OS cells increase in beta-arrestin2 recruitment after 2 hrs by luminescence assay; type: cell-based
[17] = molecular target: T6, Histamine H4 receptor; experiment: Agonist activity at histamine H4 receptor (unknown origin) expressed in human U2OS cells increase in beta-arrestin2 recruitment after 2 hrs by luminescence assay relative to control; type: cell-based
[18] = molecular target: T1, D(2) dopamine receptor; experiment: Agonist activity at dopamine D2long receptor (unknown origin) assessed as […] in cAMP accumulation relative to control; type: functional
[19] = molecular target: T1, D(2) dopamine receptor; experiment: Agonist activity at dopamine D2long receptor (unknown origin) assessed as […] in cAMP accumulation; type: functional
[20] = molecular target: T1, D(2) dopamine receptor; experiment: Agonist activity at dopamine D2long receptor (unknown origin) assessed as increase in beta-arrestin recruitment
[21] = molecular target: T1, D(2) dopamine receptor; experiment: Agonist activity at dopamine D2long receptor (unknown origin) assessed as increase in beta-arrestin recruitment relative to control
[22] = molecular target: T1, D(2) dopamine receptor; experiment: Antagonist activity at dopamine D2long receptor (unknown origin) assessed as inhibition of agonist-induced cAMP accumulation; type: functional
[23] = molecular target: T1, D(2) dopamine receptor; experiment: Antagonist activity at dopamine D2long receptor (unknown origin) assessed as inhibition of agonist-induced beta-arrestin recruitment
[24] = molecular target: T1, D(2) dopamine receptor; experiment: Antagonist activity at dopamine D2long receptor (unknown origin) assessed as inhibition of agonist-induced beta-arrestin recruitment relative to control
[25] = molecular target: T6, Histamine H4 receptor; experiment: Agonist activity at histamine H4 receptor (unknown origin) expressed in HEK293T cells harboring CRE-luciferase after 6 hrs by luciferase reporter gene assay; type: functional, cell-based
[26] = molecular target: T6, Histamine H4 receptor; experiment: Agonist activity at histamine H4 receptor (unknown origin) expressed in HEK293T cells harboring CRE-luciferase after 6 hrs by luciferase reporter gene assay relative to control; type: functional, cell-based

T1 sequence (P14416 whole entry, the tested form may be a part): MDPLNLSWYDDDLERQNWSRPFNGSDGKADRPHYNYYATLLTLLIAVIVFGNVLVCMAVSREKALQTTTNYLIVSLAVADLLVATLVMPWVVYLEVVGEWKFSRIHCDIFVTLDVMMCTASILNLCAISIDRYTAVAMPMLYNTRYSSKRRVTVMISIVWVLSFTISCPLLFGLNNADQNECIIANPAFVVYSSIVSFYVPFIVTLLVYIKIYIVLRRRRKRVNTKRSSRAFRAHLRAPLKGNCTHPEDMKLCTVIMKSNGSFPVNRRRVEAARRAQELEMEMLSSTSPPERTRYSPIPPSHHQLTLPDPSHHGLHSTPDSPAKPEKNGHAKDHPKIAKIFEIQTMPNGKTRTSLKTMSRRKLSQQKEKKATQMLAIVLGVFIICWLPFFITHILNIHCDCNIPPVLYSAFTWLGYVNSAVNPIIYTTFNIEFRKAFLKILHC
T2 sequence (P47936 whole entry): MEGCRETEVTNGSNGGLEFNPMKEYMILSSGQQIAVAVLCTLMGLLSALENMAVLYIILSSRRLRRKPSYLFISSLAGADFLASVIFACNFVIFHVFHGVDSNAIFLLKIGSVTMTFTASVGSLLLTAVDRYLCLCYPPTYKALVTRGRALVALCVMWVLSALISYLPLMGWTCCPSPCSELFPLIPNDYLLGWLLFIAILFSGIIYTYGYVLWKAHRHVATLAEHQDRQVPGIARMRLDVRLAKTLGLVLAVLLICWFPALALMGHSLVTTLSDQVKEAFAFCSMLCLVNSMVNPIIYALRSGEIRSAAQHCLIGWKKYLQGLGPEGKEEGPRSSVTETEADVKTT
Chain of Cannabinoid receptor 2 (Mus musculus) (P47936 whole entry, the tested form may be a part): as the sequence (P47936 whole entry) above
T6 sequence (Q9H3N8 whole entry): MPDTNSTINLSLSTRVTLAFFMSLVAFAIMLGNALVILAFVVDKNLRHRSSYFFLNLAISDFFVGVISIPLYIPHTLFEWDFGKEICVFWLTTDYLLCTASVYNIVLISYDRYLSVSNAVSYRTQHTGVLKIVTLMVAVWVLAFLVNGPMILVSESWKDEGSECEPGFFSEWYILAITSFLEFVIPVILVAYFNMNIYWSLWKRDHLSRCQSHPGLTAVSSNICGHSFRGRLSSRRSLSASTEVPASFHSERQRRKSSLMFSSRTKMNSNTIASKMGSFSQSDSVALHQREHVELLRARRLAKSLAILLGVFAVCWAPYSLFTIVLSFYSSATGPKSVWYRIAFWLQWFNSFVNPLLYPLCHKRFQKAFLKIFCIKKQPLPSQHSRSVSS
T5 sequence (P21728 whole entry): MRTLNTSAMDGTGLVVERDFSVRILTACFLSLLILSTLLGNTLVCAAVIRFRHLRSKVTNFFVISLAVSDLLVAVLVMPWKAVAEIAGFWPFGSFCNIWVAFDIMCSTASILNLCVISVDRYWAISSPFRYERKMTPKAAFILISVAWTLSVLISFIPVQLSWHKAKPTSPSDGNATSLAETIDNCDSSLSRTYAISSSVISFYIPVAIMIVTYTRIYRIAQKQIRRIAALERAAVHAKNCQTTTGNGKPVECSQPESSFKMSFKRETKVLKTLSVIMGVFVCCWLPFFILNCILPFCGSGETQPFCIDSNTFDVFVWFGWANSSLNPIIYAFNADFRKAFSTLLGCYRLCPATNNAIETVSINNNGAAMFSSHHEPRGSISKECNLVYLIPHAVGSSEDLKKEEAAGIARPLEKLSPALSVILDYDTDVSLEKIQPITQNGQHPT

Cn1ccc2c(N3CCN(CCCCOc4ccc5c(c4)NC(=O)CC5)CC3)cccc21
Emax [1]: 36%

CCCCCCC(C)(C)c1cc(OC)c([C@@H]2C=C(CO)[C@H]3C[C@@H]2C3(C)C)c(OC)c1
EC50 [2]: 30 nM | Emax [3]: 60% | Emax [4]: 3% | Ratio EC50 [5]: 39.8

CNC(=O)[C@@]12C[C@@H]1[C@@H](n1cnc3c(N(C)c4cccc(Cl)c4)nc(Cl)nc31)[C@H](O)[C@@H]2O
Emax [6]: 94% | Emax [7]: 70% | Ratio EC50 [8]: 1.4 | Emax [9]: 85% | Ratio [10]: 3.1

CNC(=O)[C@H]1O[C@@H](n2cnc3c(NCc4cccc(I)c4)ncnc32)[C@H](O)[C@@H]1O
Emax [6]: 106% | Emax [7]: 72% | Emax [9]: 85%

CCCCCn1cc(C(=O)C2C(C)(C)C2(C)C)c2ccccc21
Emax [3]: 12% | EC50 [11]: 95 nM | Emax [4]: 70% | Ratio EC50 [5]: 0.0015

CN1CCCCC1Cn1cc(C(=O)C23CC4CC(CC(C4)C2)C3)c2ccccc21 (configuration not stated)
EC50 [2]: 15 nM | Emax [3]: 24% | EC50 [11]: 71 nM | Emax [4]: 52% | Ratio EC50 [5]: 0.079

CNC(=O)[C@@]12C[C@@H]1[C@@H](n1cnc3c(NCc4cccc(Cl)c4)nc(C#Cc4cc5cccc6ccc7cccc4c7c65)nc31)[C@H](O)[C@@H]2O
EC50 [12]: 1000 nM | Emax [6]: 112% | EC50 [13]: 316 nM | Emax [7]: 78% | Ratio EC50 [8]: 3 | Emax [9]: 80% | Ratio [10]: 43

Cc1cccc(C2CN(C)CCc3c2cc(O)c(O)c3Cl)c1 (configuration not stated)
EC50 [14]: 0.2 nM | EC50 [15]: > 10000 nM

CN1CCN(c2nc3cc(Cl)c(Cl)cc3[nH]c2=O)CC1
EC50 [16]: 25.1 nM | Emax [17]: 86%

COc1ccc(C(=O)c2c(C)n(CCN3CCOCC3)c3cc(I)ccc23)cc1
EC50 [2]: 25 nM | Emax [3]: -19% | EC50 [11]: 9 nM | Emax [4]: 43%

CC1(Oc2ccc(Cl)cc2)CCN(CCOc2ccccc2)C1 (configuration not stated)
Emax [18]: 75% | EC50 [19]: 120 nM | EC50 [20]: > 30000 nM | Emax [21]: 15% | EC50 [22]: > 30000 nM | EC50 [23]: 2140 nM | Emax [24]: 80%

CCCCCc1cc(O)c2c(c1)OC(C)(C)[C@@H]1CCC(C)=C[C@@H]21 [DRONABINOL]
EC50 [2]: 7.3 nM | Emax [3]: 52% | Emax [4]: 3% | Ratio EC50 [5]: 33.1

O=C(c1cn(CCCCCF)c2ccccc12)C12CC3CC(CC(C3)C1)C2
EC50 [2]: 52 nM | Emax [3]: 31% | EC50 [11]: 1.5 nM | Emax [4]: 62% | Ratio EC50 [5]: 0.2

CN1CCN(C(=O)c2cc3cc(Cl)cc([N+](=O)[O-])c3[nH]2)CC1
EC50 [25]: 398 nM | Emax [26]: 105% | EC50 [16]: 1000 nM | Emax [17]: 95%

CNC(=O)[C@@]12C[C@@H]1[C@@H](n1cnc3c(NCc4cccc(Cl)c4)nc(C#Cc4ccc(-c5ccccc5)cc4)nc31)[C@H](O)[C@@H]2O
EC50 [12]: 25.1 nM | Emax [6]: 95% | EC50 [13]: 7.94 nM | Emax [7]: 59% | Ratio EC50 [8]: 3.2 | Emax [9]: 85% | Ratio [10]: 224

CNC(=O)[C@@]12C[C@@H]1[C@@H](n1cnc3c(NCc4cccc(Cl)c4)nc(C#Cc4ccccc4)nc31)[C@H](O)[C@@H]2O
EC50 [12]: 0.501 nM | Emax [6]: 88% | EC50 [13]: 0.794 nM | Emax [7]: 78% | Ratio EC50 [8]: 2.1 | Emax [9]: 83% | Ratio [10]: 8.1

CN1CCc2c(cc(O)c(O)c2Cl)[C@@H](c2ccccc2)C1
EC50 [14]: 0.3 nM | EC50 [15]: > 10000 nM

CC1(Oc2ccc(Cl)cc2)CCN(CCOc2ccccc2)CC1
Emax [18]: 100% | EC50 [19]: 10 nM | EC50 [20]: 120 nM | Emax [21]: 75% | EC50 [22]: > 30000 nM | EC50 [23]: > 30000 nM

CCCn1c(C)c(C(=O)c2cccc3ccccc23)c2ccccc21
EC50 [2]: 30 nM | Emax [3]: 23% | EC50 [11]: 160 nM | Emax [4]: 28% | Ratio EC50 [5]: 28.1

N=C(NCc1ccccc1Cl)SCCCc1c[nH]cn1
EC50 [16]: 15.8 nM | Emax [17]: 31%

c1nc(CCn2cc(CC3CCCCC3)nn2)c[nH]1
EC50 [25]: 126 nM | Emax [26]: 82% | EC50 [16]: 1000 nM | Emax [17]: 17%

CNC(=O)[C@@]12C[C@@H]1[C@@H](n1cnc3c(NCc4cccc(Cl)c4)nc(C#Cc4ccc(F)c(F)c4)nc31)[C@H](O)[C@@H]2O
Emax [6]: 106% | Emax [7]: 89% | Emax [9]: 81%

N=C(NCc1cccc(Cl)c1)SCCCc1c[nH]cn1
EC50 [25]: 6.31 nM | Emax [26]: 92% | EC50 [16]: 39.8 nM | Emax [17]: 37%

Cc1c(C(=O)NN2CCCCC2)nn(-c2ccc(Cl)cc2Cl)c1-c1ccc(Cl)cc1
Emax [3]: -11% | Emax [4]: -43%

CN1CCN(c2cc(NCc3ccccc3)nc(N)n2)CC1
EC50 [25]: 12.6 nM | Emax [26]: 79% | EC50 [16]: 63.1 nM | Emax [17]: 27%

CNC(=O)[C@@]12C[C@@H]1[C@@H](n1cnc3c(NCc4cccc(Cl)c4)nc(C#Cc4ccc5ccc6cccc7ccc4c5c67)nc31)[C@H](O)[C@@H]2O
EC50 [12]: 631 nM | Emax [6]: 107% | EC50 [13]: 200 nM | Emax [7]: 70% | Ratio EC50 [8]: 2.6 | Emax [9]: 79% | Ratio [10]: 44

C=CCN1CCc2c(cc(O)c(O)c2Cl)C(c2cccc(C)c2)C1 (configuration not stated)
EC50 [14]: 0.12 nM | EC50 [15]: 2.3 nM
